Experimental data as given in patent US9388210B2, “Neuroactive 17(20)-Z-vinylcyano-substituted steroids, prodrugs thereof, and methods of treatment using same” (priority 2011, dated 2016).
Like-named read-outs stand apart in the source and are kept apart here.

Key:
BALB/C mice = experiment: Anesthesia in mice, tail vein injection (loss of righting reflex); format: in vivo
Description: Anesthetic evaluations were performed in 7-8 week-old BALB/C mice, weighing approximately 20 g. Steroids were dissolved in 22.5% (w/v) 2-hydroxypropyl-β-cyclodextrin solution (Sigma-Aldrich) at a concentration of 1.6 mg/ml or 3.2 mg/ml and injected through the tail vein in volumes of 5 μl/g body weight. Doses (8 or 16 mg/kg) were calculated according to body weight. Animals were placed prone as soon as they stopped moving. Loss of LRR was defined as inability of mice to right themselves within 5 seconds after being placed in a prone position. […] Animals were placed on a warming blanket during the time that they were anesthetized. Each dose was administered to three or four mice and the results are presented as mean±standard error of the mean.

tadpole = experiment: Tadpole loss of righting reflex (LRR) and loss of swimming reflex (LSR); format: in vivo
[1] = biological target: rat α1β2γ2L type GABAA receptors (Rattus norvegicus (Rat), UniProt P62813+P63138, INS375LLRMFSFK); experiment: Oocyte electrophysiology: potentiation of 2 μM GABA chloride currents and direct gating, Xenopus laevis oocytes; format: cell-based; conditions: for ratio of currents measured in the presence/absence of added compound, 0.1 μM: 0.1 μM compound; for ratio of currents measured in the presence/absence of added compound, 0.1 μM / ratio of currents measured in the presence/absence of added compound, 1 μM / (gating) 10 μM: ratio of compound only current/2 μM GABA current / ratio of currents measured in the presence/absence of added compound, 10 μM: ± SEM; for ratio of currents measured in the presence/absence of added compound, 0.1 μM / ratio of currents measured in the presence/absence of added compound, 1 μM / ratio of currents measured in the presence/absence of added compound, 10 μM: N ≥ 4; for ratio of currents measured in the presence/absence of added compound, 1 μM: 1 μM compound; for (gating) 10 μM: ratio of compound only current/2 μM GABA current: 10 μM compound in the absence of GABA; for ratio of currents measured in the presence/absence of added compound, 10 μM: 10 μM compound
Description: The measured concentration of GABA, on average, gates about 4% of the maximum response of a cell. However, the sensitivity to GABA of the receptors, which determines the degree of steroid potentiation that can be measured, varied from one batch of oocytes to another.

[2] = biological target: picrotoxin binding site on GABAA receptors; conditions: for IC50: duplicate experiments in triplicate, ± SEM, read-out: IC50, inhibition of [35S]-TBPS binding
[3] = loss of righting reflex, ± SEM, read-out: Tadpole LRR EC50
[4] = loss of swimming reflex, None = all animals had a swimming response at 10 μM, read-out: Tadpole LSR EC50
[5] = loss of swimming reflex, None = all animals had a swimming response at 10 μM

| Compound | EC50 (tadpole; [3]) | EC50 (tadpole; [4]) | IC50 [2] | ratio of currents measured in the presence/absence of added compound, 0.1 μM ([1]; 2 μM GABA) | ratio of currents measured in the presence/absence of added compound, 1 μM ([1]; 2 μM GABA) | (gating) 10 μM: ratio of compound only current/2 μM GABA current [1] | ratio of currents measured in the presence/absence of added compound, 10 μM ([1]; 2 μM GABA) | further results |
| --- | --- | --- | --- | --- | --- | --- | --- | --- |
| CC(=O)[C@H]1CC[C@H]2[C@@H]3CC[C@H]4C[C@H](O)CC[C@]4(C)[C@H]3C(=O)C[C@]12C [Compound 1, alphaxalone, reference compound] |  |  |  |  |  |  |  | duration of anesthesia (loss of righting reflex) (BALB/C mice; 16 mg/kg): about 4 min; recovery period from initial return of leg movement to righting and walking (BALB/C mice; 16 mg/kg): 1 to 2 min |
| C[C@]12CC[C@@H](O)C[C@@H]1CC[C@@H]1[C@@H]2C(=O)C[C@]2(C)C(C=O)=CC[C@@H]12 [Compound 5a, (3α,5α)-3-Hydroxy-11-oxoandrost-16-ene-17-carboxaldehyde] | 3.22 ± 0.03 µM |  |  |  |  |  |  |  |
| C[C@]12CC[C@@H](O)C[C@@H]1CC[C@H]1[C@@H]3CC[C@H](C=O)[C@@]3(C)CC(=O)[C@@H]12 [Compound 5b, (3α,5α,17β)-3-Hydroxy-11-oxoandrostane-17-carboxaldehyde] | 3.98 ± 2.43 µM |  |  |  |  |  |  |  |
| C[C@]12CC[C@@H](O)C[C@@H]1CC[C@@H]1[C@@H]2C(=O)C[C@]2(C)/C(=C\C#N)CC[C@@H]12 [Compound 6a, [3α,5α,17(20)Z]-3-Hydroxy-11-oxopregn-17(20)-ene-2′-nitrile] |  | 5.48 ± 0.2 µM |  |  |  |  |  | duration of anesthesia (loss of righting reflex) (BALB/C mice; 8 mg/kg): about 1.5 min; time to loss of movement and righting reflex (BALB/C mice; 8 mg/kg): 10 to 25 s; duration of anesthesia (loss of righting reflex) (BALB/C mice; 16 mg/kg): about 4 min; onset of loss of righting reflex (BALB/C mice; 16 mg/kg): immediate; potentiation of GABA-mediated currents ([1]; 2 μM GABA, 0.1-10 μM compound): strongly enhanced GABA-mediated currents |
| C[C@]12CC[C@@H](O)C[C@@H]1CC[C@@H]1[C@@H]2C(=O)C[C@]2(C)/C(=C/C#N)CC[C@@H]12 [Compound 6b, [3α,5α,17(20)E]-3-Hydroxy-11-oxopregn-17(20)-ene-2′-nitrile] | 9.15 ± 5.37 µM | 17.3 ± 0.17 µM |  |  |  |  |  |  |
| C/C(C#N)=C1\CC[C@H]2[C@@H]3CC[C@H]4C[C@H](O)CC[C@]4(C)[C@H]3C(=O)C[C@]12C [Compound 6c, [3α,5α,17(20)Z]-3-Hydroxy-11-oxopregn-17(20)-ene-20-carbonitrile] | 2.71 ± 0.26 µM | 5.48 ± 0.2 µM |  |  |  |  |  |  |
| C[C@]12CC[C@@H](O)C[C@H]1CC[C@@H]1[C@@H]2C(=O)C[C@]2(C)/C(=C\C#N)CC[C@@H]12 [Compound 13a, [3α,5β,17(20)Z]-3-Hydroxy-11-oxo-pregn-17(20)-ene-21-nitrile] | > 10 µM |  |  |  |  |  |  | Tadpole LSR EC50 (tadpole; [5]): None |
| C[C@]12CC[C@@H](O)C[C@H]1CC[C@@H]1[C@@H]2C(=O)C[C@]2(C)/C(=C/C#N)CC[C@@H]12 [Compound 13b, [3α,5β,17(20)E]-3-Hydroxy-11-oxo-pregn-17(20)-ene-21-nitrile] | > 10 µM |  |  |  |  |  |  | Tadpole LSR EC50 (tadpole; [5]): None |
| C[C@]12CC[C@@H](O)C[C@@H]1CC[C@@H]1[C@@H]2CC[C@]2(C)/C(=C\C#N)CC[C@@H]12 [Compound 14a, [3α,5α,17(20)Z]-3-Hydroxypregn-17(20)-ene-21-nitrile] |  |  | 0.025 ± 0.003 µM | 2.18 ± 0.19 | 3.28 ± 0.37 | 0.29 ± 0.32 | 3.98 ± 0.25 | fold stronger [35S]-TBPS displacement than 17a ([2]; relative to C-11 MeO (17a)): about 2 fold; fold stronger [35S]-TBPS displacement than 6a ([2]; relative to C-11 carbonyl (6a)): about 5 fold; anesthetic activity in tadpoles (tadpole; LRR and LSR): lack of anesthetic activity; Tadpole LRR EC50 (tadpole; loss of righting reflex, ± SEM): None; Tadpole LSR EC50 (tadpole; [5]): None |
| C[C@]12CC[C@@H](O)C[C@@H]1CC[C@@H]1[C@@H]2CC[C@]2(C)/C(=C/C#N)CC[C@@H]12 [Compound 14b, [3α,5α,17(20)E]-3-Hydroxypregn-17(20)-ene-21-nitrile] | 1.21 ± 0.41 µM | > 10 µM | 0.501 ± 0.039 µM | 0.76 ± 0.05 | 1.30 ± 0.07 | −0.14 ± 0.13 | 3.15 ± 0.38 |  |
| C[C@]12CC[C@@H](O)C[C@H]1CC[C@@H]1[C@@H]2CC[C@]2(C)/C(=C\C#N)CC[C@@H]12 [Compound 15a, [3α,5β,17(20)Z]-3-Hydroxypregn-17(20)-ene-21-nitrile] | 0.472 ± 0.046 µM | 1 µM | 0.056 ± 0.01 µM | 1.32 ± 0.03 | 5.00 ± 0.30 | 0.03 ± 0.02 | 6.82 ± 0.68 |  |
| C[C@]12CC[C@@H](O)C[C@H]1CC[C@@H]1[C@@H]2CC[C@]2(C)/C(=C/C#N)CC[C@@H]12 [Compound 15b, [(3α,5β,17(20)E]-3-Hydroxypregn-17(20)-ene-21-nitrile] | 1.21 ± 0.35 µM | 5.48 ± 0.2 µM | 1.2 µM | 0.94 ± 0.02 | 1.24 ± 0.04 | 0.01 ± 0.01 | 4.83 ± 0.44 |  |
| CO[C@H]1C[C@@]2(C)[C@@H](CC[C@@H]3[C@@H]2CC[C@]2(C)/C(=C\C#N)CC[C@@H]32)C[C@@H]1O [Compound 16a, [2β,3α,5α,17(20)Z]-3-Hydroxy-2-methoxyandrost-17(20)-ene-21-nitrile] | 0.029 ± 0.006 µM | 0.11 ± 0.001 µM | 0.028 ± 0.002 µM | 2.14 ± 0.33 | 12.02 ± 2.54 | 0.40 ± 0.12 | 18.77 ± 5.16 |  |
| CO[C@H]1C[C@@]2(C)[C@@H](CC[C@@H]3[C@@H]2CC[C@]2(C)/C(=C/C#N)CC[C@@H]32)C[C@@H]1O [Compound 16b, [2β,3α,5α,17(20)E]-3-Hydroxy-2-methoxyandrost-17(20)-ene-21-nitrile] | 0.29 ± 0.05 µM | 2.97 µM | 0.544 ± 0.087 µM | 0.95 ± 0.15 | 1.34 ± 0.07 | 0.03 ± 0.14 | 4.81 ± 0.36 |  |
| CO[C@H]1C[C@]2(C)/C(=C\C#N)CC[C@H]2[C@@H]2CC[C@H]3C[C@H](O)CC[C@]3(C)[C@H]21 [Compound 17a, [3α,5α,11β,17(20)Z]-3-Hydroxy-11-methoxypregn-17(20)-ene-21-nitrile] | 0.067 ± 0.003 µM | 0.173 ± 0.003 µM | 0.053 ± 0.007 µM | 2.14 ± 0.28 | 10.28 ± 2.62 | 0.06 ± 0.07 | 11.20 ± 3.28 |  |
| CO[C@H]1C[C@]2(C)/C(=C/C#N)CC[C@H]2[C@@H]2CC[C@H]3C[C@H](O)CC[C@]3(C)[C@H]21 [Compound 17b, [3α,5α,11β,17(20)E]-3-Hydroxy-11-methoxypregn-17(20)-en-21-nitrile] | 1.19 ± 0.49 µM | 3.17 ± 0.01 µM | 0.605 ± 0.139 µM | 0.99 ± 0.02 | 1.07 ± 0.03 | 0.01 ± 0 | 3.68 ± 0.17 |  |
| [3α,5α,17(20)E]-3-(Acetyloxy)-11-oxopregn-17(20)-ene-20-carbonitrile [Compound 6d] | 2.09 ± 0.12 µM | > 10 µM |  |  |  |  |  |  |
